According to US12539292B2, “BRM targeting compounds and associated methods of use” (Arvinas Operations, Inc., priority 2018, dated 2026):
Where two headings read alike, the source gives them in different places.

Molecular target: T1, BRM (Homo sapiens, UniProt P51531)
T1 construct: In-Cell Western Screen of BRM Degradation in SW1573 Cells; endogenous in cells; host or cells: SW1573
Assay: In-cell Western screen of BRM degradation in SW1573 cells (Dmax and DC50)
Type: cell-based
Conditions: for Dmax: read-out: Dmax (%) (% degraded)
How it was run: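 Near-infrared imaging on a LI-COR Odyssey (800 and 680 nm channels) quantifies BRM remaining in fixed SW1573 cells. Cells are dosed for 18-20 h at 0.1% final DMSO, and degradation is expressed as Dmax and DC50.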

[1] = BRM degradation, SW1573 cells, read-out: DC50
[2] = BRM degradation, SW1573 cells, when tested at the top concentration of between 0.3 and 10 μM

T1 sequence (P51531 whole entry): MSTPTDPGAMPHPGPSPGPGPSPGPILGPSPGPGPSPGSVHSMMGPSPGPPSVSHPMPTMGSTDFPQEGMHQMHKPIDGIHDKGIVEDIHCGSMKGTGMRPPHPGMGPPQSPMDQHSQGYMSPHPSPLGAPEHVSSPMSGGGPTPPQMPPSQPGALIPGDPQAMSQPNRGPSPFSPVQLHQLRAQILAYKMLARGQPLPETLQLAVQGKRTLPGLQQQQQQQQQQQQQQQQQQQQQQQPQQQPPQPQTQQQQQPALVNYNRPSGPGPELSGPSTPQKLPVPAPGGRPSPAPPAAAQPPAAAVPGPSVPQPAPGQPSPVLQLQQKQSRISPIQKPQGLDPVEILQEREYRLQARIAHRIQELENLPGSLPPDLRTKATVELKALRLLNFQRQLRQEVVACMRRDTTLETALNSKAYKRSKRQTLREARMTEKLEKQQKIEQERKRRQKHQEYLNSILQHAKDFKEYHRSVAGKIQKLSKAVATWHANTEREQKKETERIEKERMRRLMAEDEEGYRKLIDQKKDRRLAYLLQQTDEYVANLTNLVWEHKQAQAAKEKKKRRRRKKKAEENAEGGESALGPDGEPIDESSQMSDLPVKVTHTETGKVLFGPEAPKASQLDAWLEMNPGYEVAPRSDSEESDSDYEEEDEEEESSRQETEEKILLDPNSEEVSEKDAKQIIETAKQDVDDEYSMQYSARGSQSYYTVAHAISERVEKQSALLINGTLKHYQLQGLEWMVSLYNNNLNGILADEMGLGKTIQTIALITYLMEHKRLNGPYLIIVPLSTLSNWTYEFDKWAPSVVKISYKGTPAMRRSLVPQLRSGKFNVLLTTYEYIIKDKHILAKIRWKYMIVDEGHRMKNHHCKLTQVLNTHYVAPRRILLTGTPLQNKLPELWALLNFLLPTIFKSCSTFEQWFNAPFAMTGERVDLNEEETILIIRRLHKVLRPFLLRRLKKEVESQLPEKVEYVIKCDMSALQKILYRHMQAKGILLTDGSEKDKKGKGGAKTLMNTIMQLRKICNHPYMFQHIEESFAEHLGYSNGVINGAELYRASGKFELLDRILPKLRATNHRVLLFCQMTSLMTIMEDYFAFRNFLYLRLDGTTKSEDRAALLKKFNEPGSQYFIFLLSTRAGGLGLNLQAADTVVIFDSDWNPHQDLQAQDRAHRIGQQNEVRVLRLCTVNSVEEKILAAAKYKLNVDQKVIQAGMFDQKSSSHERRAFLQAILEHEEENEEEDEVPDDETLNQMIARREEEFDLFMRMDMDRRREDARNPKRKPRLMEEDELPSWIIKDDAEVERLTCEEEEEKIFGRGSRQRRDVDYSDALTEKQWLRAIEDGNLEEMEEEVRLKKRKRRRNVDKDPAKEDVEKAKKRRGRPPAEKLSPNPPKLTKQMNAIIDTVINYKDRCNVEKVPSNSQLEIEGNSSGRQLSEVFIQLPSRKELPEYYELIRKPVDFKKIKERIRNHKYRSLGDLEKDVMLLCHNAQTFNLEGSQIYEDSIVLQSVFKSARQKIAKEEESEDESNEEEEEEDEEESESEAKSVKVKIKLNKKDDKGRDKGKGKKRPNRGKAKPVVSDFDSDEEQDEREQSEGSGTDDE

Row | Compound | DC50 [1] [nM] | Dmax [2] [%] | Dmax (BRM degradation, SW1573 cells, tested at the top concentration of between 0.3 and 10 μM) [%] | DC50 (degradation of BRM, read-out: BRM DC50) [nM]
1 | Cc1ncsc1-c1ccc(CNC(=O)[C@@H]2C[C@@H](O)CN2C(=O)[C@@H](NC(=O)COCCOCCOCCOc2cccc(N3C[C@H]4C[C@@H]3CN4c3cc(-c4ccccc4O)nnc3N)n2)C(C)(C)C)cc1 [compound 32, (2S,4R)-1-[(2S)-2-(1-[6-[(1R,4R)-5-[3-amino-6-(2-hydroxyphenyl)pyridazin-4-yl]-2,5-diazabicyclo[2.2.1]heptan-2-yl]pyridin-2-yl]-1,4,7,10-tetraoxadodecan-12-amido)-3,3-dimethylbutanoyl]-4-hydroxy-N-[[4-(4-methyl-1,3-thiazol-5-yl)phenyl]methyl]pyrrolidine-2-carboxamide] | > 30 | > 75 |  | 
2 | Cc1ncsc1-c1ccc([C@H](C)NC(=O)[C@@H]2C[C@@H](O)CN2C(=O)[C@@H](c2cc(OC/C=C/c3ccc(O[C@H]4C[C@H](Oc5cc(N6C7CCC6CN(c6cc(-c8ccccc8O)nnc6N)C7)ccn5)C4)cn3)no2)C(C)C)cc1 [compound 86, (2S,4R)-1-((2R)-2-(3-(((E)-3-(5-((1r,3R)-3-((4-(3-(3-amino-6-(2-hydroxyphenyl)pyridazin-4-yl)-3,8-diazabicyclo[3.2.1]octan-8-yl)pyridin-2-yl)oxy)cyclobutoxy)pyridin-2-yl)allyl)oxy)isoxazol-5-yl)-3-methylbutanoyl)-4-hydroxy-N-((S)-1-(4-(4-methylthiazol-5-yl)phenyl)ethyl)pyrrolidine-2-carboxamide] | < 2.5 | > 75 |  | 
3 | Cc1nccn1-c1ccc([C@H](C)NC(=O)[C@@H]2C[C@@H](O)CN2C(=O)[C@H](c2cc(OCCN3CCC(O[C@H]4C[C@H](Oc5cc(N6C7CCC6CN(c6cc(-c8ccccc8O)nnc6N)C7)ccn5)C4)CC3)no2)C(C)C)cc1 [compound 176, (2S,4R)-1-((2S)-2-(3-(2-(4-((1r,3S)-3-((4-(3-(3-amino-6-(2-hydroxyphenyl)pyridazin-4-yl)-3,8-diazabicyclo[3.2.1]octan-8-yl)pyridin-2-yl)oxy)cyclobutoxy)piperidin-1-yl)ethoxy)isoxazol-5-yl)-3-methylbutanoyl)-4-hydroxy-N-((S)-1-(4-(2-methyl-1H-imidazol-1-yl)phenyl)ethyl)pyrrolidine-2-carboxamide] | > 30 |  | < 50 | 
4 | Cc1nccn1-c1ccc([C@H](C)NC(=O)[C@@H]2C[C@@H](O)CN2C(=O)[C@H](c2cc(N3CCN(CCN4CCC(O[C@H]5C[C@H](Oc6cc(N7C8CCC7CN(c7cc(-c9ccccc9O)nnc7N)C8)ccn6)C5)CC4)CC3)no2)C(C)C)cc1 [compound 412, (2S,4R)-1-((2S)-2-(3-(4-(2-(4-((1r,3r)-3-((4-(3-(3-amino-6-(2-hydroxyphenyl)pyridazin-4-yl)-3,8-diazabicyclo[3.2.1]octan-8-yl)pyridin-2-yl)oxy)cyclobutoxy)piperidin-1-yl)ethyl)piperazin-1-yl)isoxazol-5-yl)-3-methylbutanoyl)-4-hydroxy-N-((S)-1-(4-(2-methyl-1 H-imidazol-1-yl)phenyl)ethyl)pyrrolidine-2-carboxamide] |  |  |  | > 30
5 | Cc1ncsc1-c1ccc(CNC(=O)[C@@H]2C[C@@H](O)CN2C(=O)[C@H](c2cc(OCCOCCOCCCCN3CCOC4(CCN(c5cc(-c6ccccc6O)nnc5N)CC4)C3)no2)C(C)C)cc1 [compound 36, (2S,4R)-1-[(2S)-2-(3-[2-[2-(4-[9-[3-amino-6-(2-hydroxyphenyl)pyridazin-4-yl]-1-oxa-4,9-diazaspiro[5.5]undecan-4-yl]butoxy)ethoxy]ethoxy]-1,2-oxazol-5-yl)-3-methylbutanoyl]-4-hydroxy-N-[[4-(4-methyl-1,3-thiazol-5-yl)phenyl]methyl]pyrrolidine-2-carboxamide] | > 30 | 50 to 75 |  | 
